Data as given in article PMC11407758, “Integrated stress response (ISR) activation and apoptosis through HRI kinase by PG3 and other p53 pathway-restoring cancer therapeutics” (Oncotarget, 2024).
Read-outs that look alike come from different tables or passages of the source.

Tests used:
HT29 (R273H) = test: Cell viability assay (CellTiterGlo), HT29; assay type: cell-based, human; details: Homo sapiens, HT-29; 72 h, CellTiterGlo
Method: (§1) Figure 1 PG3 inhibits cell proliferation and growth in a p53-indepent manner. (A–E) Cell viability assay, dose response curves and IC50 value measurements in a panel of cancer cell lines and normal cells. Cells were treated with different concentrations of PG3, PG3-Oc (Oc), obatoclax (Ob), prodigiosin (P) or DMSO for 72 h. Luciferase activity was imaged by the IVIS Imaging System after treatment. Cell viability data were normalized to those of DMSO treatment control in each cell line and data analyses were performed using PRISM4 software. IC50 data are expressed as the mean ±SD (normal; n = 3).
as §1, with “2 p53-dependent inhibition of” for “1 PG3 inhibits”, “is only observed at specific concentrations. (A–J)” for “and growth in a p53-indepent manner. (A–E)”, “ZMC1, CP-313908, APR-246, Ellipticine, Nutalin-3a” for “PG3, PG3-Oc (Oc), obatoclax (Ob), prodigiosin (P)”
(§2) Cells were seeded in 96-well plates (6 × 10^3 cells/well). Cells were treated with different concentrations of compounds or dimethyl sulfoxide (DMSO) as a control for 72 hours. The cell viability was assessed by CellTiterGlo bioluminescent cell viability assay (Promega), following the manufacturer’s protocol. Bioluminescence imaging was measured using the IVIS imager. The percentage of cell viability (mean ± SEM) at each dose was calculated against the respective DMSO control. The IC50 values were determined from the sigmoidal dose-response curves using GraphPad Prism.

TOV-112D (R175H) = test: Cell viability assay (CellTiterGlo), TOV-112D; assay type: cell-based, human; details: for IC50: Homo sapiens, TOV112D, 72 h
Method: as §1
as §1, with “2 p53-dependent inhibition of” for “1 PG3 inhibits”, “is only observed at specific concentrations. (A–J)” for “and growth in a p53-indepent manner. (A–E)”, “ZMC1, CP-313908, APR-246, Ellipticine, Nutalin-3a” for “PG3, PG3-Oc (Oc), obatoclax (Ob), prodigiosin (P)”
as §2

HCT116 (P53−/−) = test: Cell viability assay (CellTiterGlo), HCT116 p53-/-; assay type: cell-based, human; details: Homo sapiens, HCT-116; 72 h, CellTiterGlo
Method: as §1
as §1, with “2 p53-dependent inhibition of” for “1 PG3 inhibits”, “is only observed at specific concentrations. (A–J)” for “and growth in a p53-indepent manner. (A–E)”, “ZMC1, CP-313908, APR-246, Ellipticine, Nutalin-3a” for “PG3, PG3-Oc (Oc), obatoclax (Ob), prodigiosin (P)”
as §2

HCT116 (WT) = test: Cell viability assay (CellTiterGlo), HCT116 WT; assay type: cell-based, human; details: Homo sapiens, HCT-116; 72 h, CellTiterGlo
Method: as §1
as §1, with “2 p53-dependent inhibition of” for “1 PG3 inhibits”, “is only observed at specific concentrations. (A–J)” for “and growth in a p53-indepent manner. (A–E)”, “ZMC1, CP-313908, APR-246, Ellipticine, Nutalin-3a” for “PG3, PG3-Oc (Oc), obatoclax (Ob), prodigiosin (P)”
as §2

HCT116 (R175H) = test: Cell viability assay (CellTiterGlo), HCT116 R175H; assay type: cell-based, human; details: Homo sapiens, HCT-116; 72 h, CellTiterGlo
Method: as §1
as §1, with “2 p53-dependent inhibition of” for “1 PG3 inhibits”, “is only observed at specific concentrations. (A–J)” for “and growth in a p53-indepent manner. (A–E)”, “ZMC1, CP-313908, APR-246, Ellipticine, Nutalin-3a” for “PG3, PG3-Oc (Oc), obatoclax (Ob), prodigiosin (P)”
as §2

[1] = system: HFF-1 (human foreskin fibroblast cell with wild-type p53); test: Cell viability assay (CellTiterGlo), HFF-1 normal cells; assay type: cell-based
Method: as §1
as §1, with “2 p53-dependent inhibition of” for “1 PG3 inhibits”, “is only observed at specific concentrations. (A–J)” for “and growth in a p53-indepent manner. (A–E)”, “ZMC1, CP-313908, APR-246, Ellipticine, Nutalin-3a” for “PG3, PG3-Oc (Oc), obatoclax (Ob), prodigiosin (P)”
as §2

[2] = system: MRC5 (human lung fibroblast cell with wild-type p53); test: Cell viability assay (CellTiterGlo), MRC5 normal cells; assay type: cell-based; details: Homo sapiens, MRC5, 72 h, read-out: IC50 values, MRC5 (WT)
Method: as §1
as §1, with “2 p53-dependent inhibition of” for “1 PG3 inhibits”, “is only observed at specific concentrations. (A–J)” for “and growth in a p53-indepent manner. (A–E)”, “ZMC1, CP-313908, APR-246, Ellipticine, Nutalin-3a” for “PG3, PG3-Oc (Oc), obatoclax (Ob), prodigiosin (P)”
as §2

ATF4 = test: Western blot, ATF4 induction; assay type: cell-based, human; details: five cancer cell lines, 24 h
Method: (§3) Figure 4 Activation of ATF4 and up-regulation of typical p53 target genes. (A–E) Western blot analysis of p53 protein levels and upregulation of ATF4, PUMA, DR5 and p21. Cells were treated for 24 h with indicated compounds, concentrations and cell lines. Abbreviations: S.E.: Short exposure; L.E.: Long exposure.
(§4) After treatment, protein lysates were collected for Western blot analysis. A total of 15 μg of protein was used for SDS-PAGE. After primary and secondary antibody incubations, the signal was detected by a chemiluminescence detection kit, imaged by Syngene (Imgen Technologies). Antibodies for NAG-1 (GDF15) and P53 were from Santa Cruz Biotechnology; for caspase 8, cleaved caspase 8, caspase 9, caspase 3, cleavage PARP, eIF2α, p-eIF2α (Ser51), CHOP, ATF4, DR5, and PUMA were from Cell Signaling Technology. Noxa and p21 were from Calbiochem. Ran was from BD Biosciences.

DR5 = test: Western blot, DR5 induction; assay type: cell-based, human; details: five cell lines, 24 h
Method: as §3, §4

PUMA = test: Western blot, PUMA induction; assay type: cell-based, human; details: five cell lines, 24 h
Method: as §3, §4

p21 = test: Western blot, p21 induction; assay type: cell-based, human; details: five cell lines, 24 h
Method: as §3, §4

[3] = system: cleaved caspase-8, -3, cleaved PARP and PUMA in HT29, SW480 and HCT116 p53−/− cells; test: Western blot, apoptosis markers in PG3-treated cells; assay type: cell-based, human
Method: Figure 5 PG3 induces apoptosis in p53-null and p53-mutant cancer cell lines. (A–E) Dose-response and time-course analysis of cleavage of caspase-8, -3, cleaved PARP and PUMA in PG3-treated HT29, SW480 and HCT116 p53^−/− cells by western blot using the indicated antibodies. (F–H) Flowcytometry analysis of cell death. (I) HT29 and HT29-PUMA^−/− and (J) SW480 cells were co-treated with PG3 and pan-caspase inhibitor Z-VAD-fmk for 48 h. (K) HCT116 p53^−/− cell were co-treated with PG3 and Z-VAD-fmk for 24 hours.
as §4

[4] = system: GCN2, PKR, eIF2α, ATF4, CHOP in HT29 cells; test: Western blot, ISR kinases / eIF2α / ATF4 / CHOP; assay type: cell-based, human; details: HT29, 15 h
Method: Figure 7 PG3 induces upregulation of ATF4 through ISR via HRI. (A) HT29 cells were treated with PG3, GSK2606414, TG and ONC201 respectively, or co-treatment with PG3/GSK2606414, PG3/TG, and PG3/ONC201 for 15 h. (B) MEF, MEF^PERK−/− and MEF^GCN2−/− cells were treated with PG3 and ONC201 for 16 hours. (C) HT29 cells were transfected with siControl, siPKR, siHRI and siPKR/siHRI for 24 hours and then treated with PG3 for 16 hours. (D) HCT116 p53^−/− cells were transfected with siControl and siHRI for 24 hours and then treated with PG3 for 16 hours. (E) HCT116 p53^−/− cells were treated with PG3 and ONC201 for indicated times. (F) PANC1-sgCtrl, -sgHRI and -sgPKR cell lines were treated with PG3 and imipridones (ONC201, ONC206 and ONC212) for 16 hours. Western blot was performed using indicated antibodies. (G) Proposed model of PG3-induced cell apoptosis through HRI/ATF4/PUMA axis. Abbreviation: L.E.: Long exposure.
as §4
Supplementary Figure 2: ROS and NO are not responsible for PG3-induced HRI activation. (A, B) cells were pre-treated
with ZnPP, L-NMMA, SA and NAC for 2 hours respectively, and then ONC201 or PG3 was added to the medium for 24 hour treatment.
Western blot was performed using indicated antibodies.
(1 picture or pasted object on this page, not shown here)

IC50 (HT29 (R273H)): 36 nM
IC50 (HCT116 (P53−/−)): 52 nM
IC50 (HCT116 (WT)): 71 nM
IC50 (HCT116 (R175H)): 66 nM
Structure (SMILES): CCc1c(C)[nH]c(/C=C2\N=C(c3ccc[nH]3)C=C2OC)c1C [PG3]
IC50 (TOV-112D (R175H); CellTiterGlo, read-out: IC50 values, TOV-1120 (R175H) (converted)): 126 nM
IC50 (TOV-112D (R175H); unit inferred, 'within the nanomolar range', read-out: IC50 value, TOV-112D): 120 nM
fold less potent than PG3-Oc (TOV-112D (R175H); TOV-112D): 3.3 fold
fold less toxic than PG3-Oc ([1]; HFF-1 normal cells): 3.4 fold
IC50 ([1]; Homo sapiens, HFF-1, 72 h, CellTiterGlo, normal cells, read-out: IC50 values, HFF-l (WT)): 1050 nM
IC50 [2]: 2230 nM
upregulation of ATF4 (ATF4): induce upregulation of ATF4
upregulation of DR5 (DR5): consistently induce upregulation
upregulation of PUMA (PUMA): consistently induce upregulation
upregulation of p21 (p21): consistently induce upregulation
time at which cleavage of PARP, caspase-8 and -3 occurs ([3]; HT29, HCT116 p53–/– and SW480): 48 h
concentration sufficient to induce PUMA and activate cleaved caspase-8 and -3 and cleaved-PARP ([3]; HT29 and SW480 cells, dose-response): 0.5 µM
caspase-9 activation ([3]; HT29 cells): does not activate caspase-9
time at which PUMA protein is first induced ([3]; time-course): 24 h
phosphorylation of GCN2 and PKR [4]: does not increase phosphorylation
